Experimental data reported in ChEMBL document CHEMBL1949624, “Synthesis of a spin-labeled anti-estrogen as a dynamic motion probe for the estrogen receptor ligand binding domain” (Bioorg Med Chem Lett, 2012).

Key:
[1] = biological target: Estrogen receptor beta (Homo sapiens) (UniProt Q92731); experiment: Relative binding affinity to ERbeta LBD by competitive binding assay
[2] = Selectivity ratio of relative binding affinity for ERbeta receptor LBD to relative binding affinity for ERalpha receptor LBD
[3] = biological target: T1, Estrogen receptor (Homo sapiens) (UniProt P03372); experiment: Relative binding affinity to ERalpha LBD by competitive binding assay
T1 sequence (whole entry): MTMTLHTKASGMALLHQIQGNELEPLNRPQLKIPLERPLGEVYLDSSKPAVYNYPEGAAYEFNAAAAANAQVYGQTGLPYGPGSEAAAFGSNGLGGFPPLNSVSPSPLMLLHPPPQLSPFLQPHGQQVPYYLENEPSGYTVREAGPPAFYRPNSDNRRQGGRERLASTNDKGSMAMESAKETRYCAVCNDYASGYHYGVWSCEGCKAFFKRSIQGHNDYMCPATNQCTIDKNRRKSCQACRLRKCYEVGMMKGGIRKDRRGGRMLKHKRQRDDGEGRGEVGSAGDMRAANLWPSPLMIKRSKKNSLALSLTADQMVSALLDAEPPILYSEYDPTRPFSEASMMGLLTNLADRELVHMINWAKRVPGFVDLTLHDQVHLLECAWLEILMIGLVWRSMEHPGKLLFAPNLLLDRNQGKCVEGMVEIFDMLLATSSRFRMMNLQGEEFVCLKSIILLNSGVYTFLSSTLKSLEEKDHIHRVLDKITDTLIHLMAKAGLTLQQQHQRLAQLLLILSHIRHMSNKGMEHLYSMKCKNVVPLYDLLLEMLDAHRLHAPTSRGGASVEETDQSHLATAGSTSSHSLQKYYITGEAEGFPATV

Chain of Estrogen receptor beta (Homo sapiens) (Q92731 whole entry, the tested form may be a part): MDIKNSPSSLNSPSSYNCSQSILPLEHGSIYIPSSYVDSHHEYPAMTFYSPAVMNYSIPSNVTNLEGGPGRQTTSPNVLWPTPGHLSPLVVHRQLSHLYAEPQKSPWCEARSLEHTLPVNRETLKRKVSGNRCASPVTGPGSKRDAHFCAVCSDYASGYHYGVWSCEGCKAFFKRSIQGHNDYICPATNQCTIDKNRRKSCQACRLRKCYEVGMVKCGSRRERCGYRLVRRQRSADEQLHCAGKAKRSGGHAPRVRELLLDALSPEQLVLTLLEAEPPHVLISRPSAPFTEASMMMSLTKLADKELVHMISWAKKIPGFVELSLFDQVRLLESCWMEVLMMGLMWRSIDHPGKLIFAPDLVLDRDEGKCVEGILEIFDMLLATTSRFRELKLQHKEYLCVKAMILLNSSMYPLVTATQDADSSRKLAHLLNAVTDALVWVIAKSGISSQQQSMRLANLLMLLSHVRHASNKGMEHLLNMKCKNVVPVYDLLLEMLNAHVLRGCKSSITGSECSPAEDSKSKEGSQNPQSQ

SMILES	RBA [1]	Selectivity ratio [2]	RBA [3]
C[C@]12C[C@H](c3ccc(OCCN=[N+]=[N-])cc3)[C@@H]3c4ccc(O)cc4CC[C@H]3[C@@H]1CC[C@@H]2O	33.7%	0.86	
CC1(C)CC(NCc2cn(CCOc3ccc([C@H]4C[C@]5(C)[C@@H](O)CC[C@H]5[C@@H]5CCc6cc(O)ccc6[C@H]54)cc3)nn2)CC(C)(C)N1[O]	1.9%	0.43	4.5%
